Laboratory results published in US6495683B2, “4-oxo-4,7-dihydro-thieno[2,3-b]pyridine-5-carboxamides as antiviral agents” (Pharmacia and Upjohn Company, priority 1999, dated 2002).
Like-named read-outs stand apart in the source and are kept apart here.

Legend:
VZV polymerase = VZV polymerase (Varicella-zoster virus, UniProt P09252); assay: biochemical
HCMV polymerase = target: T1, HCMV polymerase (Human cytomegalovirus, UniProt P08546); assay: biochemical; details: modified SPA assay: compounds diluted in 100% DMSO, 4.5 mM DTT in polymerase buffer; read-out: polymerase IC50 (μM) HCMV
T1 construct: made in house; host or cells: recombinant baculovirus-infected SF-9 cells
Protocol: The HCMV polymerase assay is performed using a scintillation proximity assay (SPA) as described in several references, such as N. D. Cook, et al., Pharmaceutical Manufacturing International, pages 49-53 (1992); K. Takeuchi, Laboratory Practice, September issue (1992); U.S. Pat. No. 4,568,649 (1986); which are incorporated by reference herein. Reactions are performed in 96-well plates. The assay is conducted in 100 μl volume with 5.4 mM HEPE (pH 7.5), 11.7 mM KCl, 4.5 mM MgCl2, 0.36 mg/ml BSA, and 90 nM ^3H-dTTP. Assays are run with and without CHAPS, (3-[(3-cholamidopropyl)-dimethylammonio]-1-propane-sulfonate) at a final concentration of 2 mM. HCMV polymerase is diluted in enzyme dilution buffer containing 50% glycerol, 250 mM NaCl, 10 mM HEPES (pH 7.5), 100 μg/ml BSA, and 0.01% sodium azide. The HCMV polymerase, which is expressed in recombinant baculovirus-infected SF-9 cells and purified according to literature procedures, is added at 10% (or 10 μl) of the final reaction volume, i.e., 100 μl. Compounds are diluted in 50% DMSO and 10 μl are added to each well. Control wells contain an equivalent concentration of DMSO. Unless noted otherwise, reactions are initiated via the addition of 6 nM biotinylated poly(dA)-oligo(dT) template/primer to reaction mixtures containing the enzyme, substrate, and compounds of interest. Plates are incubated in a 25 C or 37 C H2O bath and terminated via the addition of 40 μl/reaction of 0.5 M EDTA (pH 8) per well. Reactions are terminated within the time-frame during which substrate incorporation is linear and varied depending upon the enzyme and conditions used, i.e., 30 min. for HCMV polymerase. Ten μl of streptavidin-SPA beads (20 mg/ml in PBS/10% glycerol) are added following termination of the reaction. Plates are incubated 10 min. at 37 ° C., then equilibrated to room temperature, and counted on a Packard Topcount. Linear regressions are performed and IC50's are calculated using computer software.
A modified version of the above HCMV polymerase assay is performed as described above, but with the following changes: Compounds are diluted in 100% DMSO until final dilution into assay buffer. In the previous assay, compounds are diluted in 50% DMSO. 4.5 mM dithiothreotol (DTT) is added to the polymerase buffer.

HSV polymerase = HSV polymerase (Human herpesvirus 1, UniProt P04293); assay: biochemical
[1] = read-out: polymerase IC50 (μM) VZV
[2] = read-out: polymerase IC50 (μM) HSV

Chain of HSV polymerase (P04293 whole entry): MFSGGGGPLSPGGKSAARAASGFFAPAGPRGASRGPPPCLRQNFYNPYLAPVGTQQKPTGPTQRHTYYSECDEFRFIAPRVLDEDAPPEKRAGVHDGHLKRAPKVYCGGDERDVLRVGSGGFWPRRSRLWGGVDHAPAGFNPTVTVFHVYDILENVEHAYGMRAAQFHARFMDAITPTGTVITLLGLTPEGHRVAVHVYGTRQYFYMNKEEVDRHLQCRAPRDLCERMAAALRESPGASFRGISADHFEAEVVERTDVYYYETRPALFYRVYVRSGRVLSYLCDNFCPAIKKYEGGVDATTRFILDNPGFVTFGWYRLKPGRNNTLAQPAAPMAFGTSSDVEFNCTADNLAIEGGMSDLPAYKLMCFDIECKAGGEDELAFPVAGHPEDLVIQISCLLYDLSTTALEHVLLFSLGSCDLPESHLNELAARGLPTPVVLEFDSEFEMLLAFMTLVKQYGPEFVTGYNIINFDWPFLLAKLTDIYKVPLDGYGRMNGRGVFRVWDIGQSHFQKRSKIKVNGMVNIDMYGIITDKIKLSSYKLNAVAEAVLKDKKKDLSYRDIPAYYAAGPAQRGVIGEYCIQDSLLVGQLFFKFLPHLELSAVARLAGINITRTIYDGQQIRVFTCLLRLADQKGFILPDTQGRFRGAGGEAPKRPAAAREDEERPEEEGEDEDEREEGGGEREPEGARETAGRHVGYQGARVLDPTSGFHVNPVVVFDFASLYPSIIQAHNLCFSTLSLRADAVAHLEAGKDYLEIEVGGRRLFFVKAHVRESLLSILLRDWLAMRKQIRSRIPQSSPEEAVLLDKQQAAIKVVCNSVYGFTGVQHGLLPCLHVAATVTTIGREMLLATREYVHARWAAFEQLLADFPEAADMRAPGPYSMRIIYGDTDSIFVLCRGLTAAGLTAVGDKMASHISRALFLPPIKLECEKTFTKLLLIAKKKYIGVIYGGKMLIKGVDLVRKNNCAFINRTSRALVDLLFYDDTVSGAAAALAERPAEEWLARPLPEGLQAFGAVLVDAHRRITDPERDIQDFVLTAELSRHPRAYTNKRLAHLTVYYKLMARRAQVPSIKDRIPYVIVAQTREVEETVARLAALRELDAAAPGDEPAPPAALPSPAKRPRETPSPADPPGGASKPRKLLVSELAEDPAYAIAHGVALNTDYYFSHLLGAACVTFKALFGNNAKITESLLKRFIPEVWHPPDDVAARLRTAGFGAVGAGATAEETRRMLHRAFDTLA
T1 sequence (P08546 whole entry): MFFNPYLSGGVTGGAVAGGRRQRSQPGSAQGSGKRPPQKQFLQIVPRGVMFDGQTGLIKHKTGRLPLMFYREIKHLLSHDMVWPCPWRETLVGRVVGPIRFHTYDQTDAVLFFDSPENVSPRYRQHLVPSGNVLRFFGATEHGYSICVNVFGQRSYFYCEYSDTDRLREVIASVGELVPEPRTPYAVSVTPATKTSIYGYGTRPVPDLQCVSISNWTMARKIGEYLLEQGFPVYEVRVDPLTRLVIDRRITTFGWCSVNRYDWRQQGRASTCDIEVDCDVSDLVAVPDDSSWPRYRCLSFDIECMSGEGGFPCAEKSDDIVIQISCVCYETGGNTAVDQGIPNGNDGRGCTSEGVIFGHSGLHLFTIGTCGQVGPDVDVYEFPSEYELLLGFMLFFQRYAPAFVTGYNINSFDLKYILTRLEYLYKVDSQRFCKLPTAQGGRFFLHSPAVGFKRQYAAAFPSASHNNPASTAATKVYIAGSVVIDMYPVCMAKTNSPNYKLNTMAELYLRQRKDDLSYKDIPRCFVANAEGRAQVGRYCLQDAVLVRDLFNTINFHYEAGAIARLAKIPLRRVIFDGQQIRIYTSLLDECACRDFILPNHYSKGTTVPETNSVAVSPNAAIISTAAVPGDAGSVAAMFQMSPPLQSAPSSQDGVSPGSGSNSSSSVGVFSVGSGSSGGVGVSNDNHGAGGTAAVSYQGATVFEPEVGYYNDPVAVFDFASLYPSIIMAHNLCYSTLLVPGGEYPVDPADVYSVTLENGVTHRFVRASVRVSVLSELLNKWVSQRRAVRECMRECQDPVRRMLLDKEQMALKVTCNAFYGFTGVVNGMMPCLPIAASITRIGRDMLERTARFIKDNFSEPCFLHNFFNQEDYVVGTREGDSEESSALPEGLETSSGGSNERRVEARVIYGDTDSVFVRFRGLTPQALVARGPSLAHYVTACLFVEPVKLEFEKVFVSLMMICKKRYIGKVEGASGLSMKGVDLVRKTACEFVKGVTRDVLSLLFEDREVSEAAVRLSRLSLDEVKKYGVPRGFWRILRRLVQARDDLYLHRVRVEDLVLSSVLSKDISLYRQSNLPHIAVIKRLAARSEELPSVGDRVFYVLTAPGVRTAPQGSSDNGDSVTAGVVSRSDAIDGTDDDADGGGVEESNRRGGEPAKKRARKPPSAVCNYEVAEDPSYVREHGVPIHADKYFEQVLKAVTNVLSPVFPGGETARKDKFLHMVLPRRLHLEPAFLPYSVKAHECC
Chain of VZV polymerase (P09252 whole entry): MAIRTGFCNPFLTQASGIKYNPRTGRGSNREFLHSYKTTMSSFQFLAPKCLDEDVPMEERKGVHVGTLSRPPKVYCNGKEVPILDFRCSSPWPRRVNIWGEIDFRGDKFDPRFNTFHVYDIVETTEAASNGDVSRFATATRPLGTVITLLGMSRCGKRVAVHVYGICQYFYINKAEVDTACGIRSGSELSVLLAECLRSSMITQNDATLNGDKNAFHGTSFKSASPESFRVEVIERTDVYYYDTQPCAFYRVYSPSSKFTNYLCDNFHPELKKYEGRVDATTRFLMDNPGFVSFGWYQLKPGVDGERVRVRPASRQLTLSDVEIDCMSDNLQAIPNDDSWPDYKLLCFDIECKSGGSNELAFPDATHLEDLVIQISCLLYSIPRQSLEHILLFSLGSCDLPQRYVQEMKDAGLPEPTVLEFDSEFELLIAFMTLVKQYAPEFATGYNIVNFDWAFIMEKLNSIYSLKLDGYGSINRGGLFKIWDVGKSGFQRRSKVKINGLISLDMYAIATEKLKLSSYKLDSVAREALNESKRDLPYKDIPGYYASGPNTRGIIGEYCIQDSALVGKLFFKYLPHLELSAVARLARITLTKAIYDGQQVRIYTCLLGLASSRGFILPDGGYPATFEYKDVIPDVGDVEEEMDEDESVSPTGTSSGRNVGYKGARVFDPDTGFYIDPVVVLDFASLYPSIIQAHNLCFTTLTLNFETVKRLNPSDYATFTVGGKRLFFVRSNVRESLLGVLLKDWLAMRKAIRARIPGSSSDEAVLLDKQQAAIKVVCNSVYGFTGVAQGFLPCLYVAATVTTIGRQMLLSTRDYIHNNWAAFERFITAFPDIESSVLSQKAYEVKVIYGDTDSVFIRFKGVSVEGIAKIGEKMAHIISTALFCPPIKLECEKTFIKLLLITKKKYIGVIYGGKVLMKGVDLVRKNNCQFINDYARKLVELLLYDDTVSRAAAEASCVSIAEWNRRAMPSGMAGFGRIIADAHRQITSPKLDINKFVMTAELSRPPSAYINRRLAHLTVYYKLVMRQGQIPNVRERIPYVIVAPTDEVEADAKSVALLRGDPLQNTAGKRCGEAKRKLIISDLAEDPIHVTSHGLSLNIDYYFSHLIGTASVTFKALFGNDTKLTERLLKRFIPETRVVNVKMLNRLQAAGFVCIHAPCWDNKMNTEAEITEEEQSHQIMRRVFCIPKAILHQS

Row | IC50 (HCMV polymerase) | melting point | Structure (SMILES) | IC50 (VZV polymerase; [1]) | IC50 (HSV polymerase) | IC50 (HSV polymerase; [2]) | IC50 (VZV polymerase)
1 | 4.7 µM |  | CCn1cc(C(=O)NCc2ccc(Cl)cc2)c(=O)c2cc(C#CCCO)sc21 [Example 15, N-(4-Chlorobenzyl)-7-ethyl-2-(4-hydroxy-1-butynyl)-4-oxo-4,7-dihydrothieno[2,3-b]pyridine-5-carboxamide] | 1.9 µM |  | 3.2 µM | 
2 | 2.9 µM | 236 to 237 °C | Cn1cc(C(=O)NCc2ccc(Cl)cc2)c(=O)c2cc(I)sc21 [Example 23, N-(4-Chlorobenzyl)-2-iodo-7-methyl-4-oxo-4,7-dihydrothieno[2,3-b]pyridine-5-carboxamide] |  |  |  | 
3 | 14.2 µM | 173 to 180 °C | CC(C)n1cc(C(=O)NCc2ccc(Cl)cc2)c(=O)c2cc(I)sc21 [Example 26, N-(4-Chlorobenzyl)-2-iodo-7-isopropyl-4-oxo-7-3dihydrothiedion[2,3-b]pyridine-5-carboxamide] |  |  |  | 
4 | 0.86 µM | 230 to 235 °C (dec.) | O=C(O)Cn1cc(C(=O)NCc2ccc(Cl)cc2)c(=O)c2cc(C#CCO)sc21 [Example 19, 2-[5-{[(4-Chlorobenzyl)amino]carbonyl}-2-(3-hydroxy-1-propynyl)4-oxothieno[2,3-b]pyridin-7(4H)-yl]acetic Acid] |  |  |  | 
5 | 19 µM | 244 to 245 °C (dec.) | Cn1cc(C(=O)NCc2ccc(Cl)cc2)c(=O)c2cc(C(=O)N3CCOCC3)sc21 [Example 48, N-(4-Chlorobenzyl)-7-methyl-2-(4-morpholinyl-carbonyl)-4 dothieno[2,3-b]pyridine-5-carboxamide] |  |  |  | 
6 | 10.8 µM | 234 to 236 °C | O=C(NCc1ccc(Cl)cc1)c1cnc2sc(Br)cc2c1O [Example 4, 2-Bromo-N-(4-chlorobenzyl)-4-hydroxythieno[2,3-b]pyridine-5-carboxamide] |  |  |  | 
7 | 4.7 µM | 191 to 195 °C | CC(C)n1cc(C(=O)NCc2ccc(Cl)cc2)c(=O)c2cc(CN3CCOCC3)sc21 [Example 44, N-(4-Chlorobenzyl)-7-isopropyl-2-(4-morpholinylmethyl)-4-oxo-4,7-dihydrothieno[2,3-b]pyridine-5-carboxamide] |  |  |  | 
8 | > 50 µM | 147 to 150 °C | CCn1cc(C(=O)NCc2ccc(Cl)cc2)c(=O)c2cc(C#CCOC(=O)c3cccc(CN4CCOCC4)c3)sc21 [Example 32, 3-(5-{[(4-Chlorobenzyl)amino]carbonyl}-7-ethyl-4-oxo-4,7-dihydrothieno[2,3-b]pyridin-2-yl)-2-propynyl 3-(4-Morpholinylmethyl)benzoate] |  |  |  | 
9 | < 0.31 µM | 184 to 187 °C | CN(Cc1cc2c(=O)c(C(=O)NCc3ccc(Cl)cc3)cn(C)c2s1)CC(O)c1ccccc1 (stereo not shown) [Example 40, N-(4-Chlorobenzyl)-2-(((2-hydroxy-2-phenylethyl)(methyl)-amino)methyl)-7-methyl-4-oxo-4,7-dihydrothieno[2,3-b]pyridine-5-carboxamide] |  |  |  | 
10 | < 0.78 µM | 174 to 178 °C | O=C(NCc1ccc(Cl)cc1)c1cn(CCO)c2sc(CCCO)cc2c1=O [Example 21, N-(4-Chlorobenzyl)-7-(2-hydroxyethyl)-2-(3-hydroxypropyl)4-oxo-4,7-dihydrothieno[2,3-b]pyridine-5-carboxamide] |  |  |  | 
11 | 4 µM | 178 to 180 °C | O=C(NCc1ccc(Cl)cc1)c1cn(CCN2CCCC2)c2sc(CN3CCOCC3)cc2c1=O [Example 53, N-(4-Chlorobenzyl)-2-(4-morpholinylmethyl)-4-oxo-7-[2-(1-pyrrolidinyl)ethyl]-4,7-dihydrothieno[2,3-b]pyridine-5-carboxamide] |  |  |  | 
12 | > 20 µM | 205 to 210 °C | O=C(NCc1ccc(Cl)cc1)c1cnc2sc(CO)cc2c1O [Example 34, N-(4-Chlorobenzyl)-4-hydroxy-2-(hydroxymethyl)thieno[2,3-b]pyridine-5-carboxamide] |  |  |  | 
13 | 1.5 µM | 191 to 195 °C | O=C(NCc1ccc(Cl)cc1)c1cn(CC2CCCO2)c2sc(CN3CCOCC3)cc2c1=O (stereo not shown) [Example 52] |  |  |  | 
14 | 11 µM | 183 to 184 °C | CCn1cc(C(=O)NCc2ccc(Cl)cc2)c(=O)c2ccsc21 [Example 12, N-(4-Chlorobenzyl)-7-ethyl-4-oxo-4,7-dihydrothieno[2,3-b]pyridine-5-carboxamide] |  |  |  | 
15 | 34.3 µM | 197 to 198 °C | COC(=O)C(CC#Cc1cc2c(O)c(C(=O)NCc3ccc(Cl)cc3)cnc2s1)C(=O)OC [Example 10, Dimethyl 2-[3-(5-{[(4-Chlorobenzyl)amino]carbonyl}-4-hydroxythieno[2,3-b]pyridin-2-yl)-2-propynyl]malonate] |  |  |  | 
16 | 2.6 µM | 214 to 216 °C | Cn1cc(C(=O)NCc2ccc(F)cc2)c(=O)c2cc(CN3CCOCC3)sc21 [Example 45, N-(4-Fluorobenzyl)-7-methyl-2-(4-morpholinylmethyl)-4-oxo-4,7-dihydrothieno[2,3-b]pyridine-5-carboxamide] |  |  |  | 
17 | 1.8 µM | 217 to 219 °C | CCn1cc(C(=O)NCc2ccc(Cl)cc2)c(=O)c2cc(C#CCO)sc21 [Example 14, N-(4-Chlorobenzyl)-7-ethyl-2-(3-hydroxy-1-propynyl)-4-oxo4,7-dihydrothieno[2,3-b]pyridine-5-carboxamide] |  |  |  | 
18 | 5 µM | 208 to 210 °C (dec.) | O=C(NCc1ccc(Cl)cc1)c1cn(Cc2ccncc2)c2sc(CN3CCOCC3)cc2c1=O [Example 55, N-(4-Chlorobenzyl)-2-(4-morpholinylmethyl)-4-oxo-7-(4-pyridinylmethyl)-4,7-dihydrothieno[2,3-b]pyridine-5-carboxamide] |  |  |  | 
19 | 15.9 µM | > 300 °C | O=C(NCc1ccc(Cl)cc1)c1cnc2sc(S(=O)(=O)N3CCOCC3)cc2c1O [Example 3, N-(4-Chlorobenzyl)-4-hydroxy-2-(4-morpholinylsulfonyl)-thieno[2,3-b]pyridine-5-carboxamide] |  |  |  | 
20 | 6.5 µM | 180 to 182 °C | CCn1cc(C(=O)NCc2ccc(Cl)cc2)c(=O)c2cc(C#CCOC(=O)CCC(=O)O)sc21 [Example 29, 4-{[3-(5-{[(4-Chlorobenzyl)amino]carbonyl}-7-ethyl-4-oxo-4,7-dihydrothieno[2,3-b]pyridin-2-yl)-2-propynyl]oxy}-4-oxobutanoic Acid] |  |  |  | 
21 | 18.5 µM | 222 to 225 °C | Cn1cc(C(=O)NCc2ccc(Cl)cc2)c(=O)c2cc(CO)sc21 [Example 35, N-(4-Chlorobenzyl)-2-(hydroxymethyl)-7-methyl-4-oxo-4,7-dihydrothieno[2,3-b]pyridine-5-carboxamide] |  |  |  | 
22 | 6.3 µM | 231 to 232 °C (dec.) | O=C(NCc1ccc(Cl)cc1)c1cnc2sc(I)cc2c1O [Example 2, N-(4-Chlorobenzyl)-4-hydroxy-2-iodothieno[2,3-b]pyridine-5-carboxamide] |  |  |  | 
23 | 9 µM | 214 to 218 °C | CCn1cc(C(=O)NCc2ccc(Cl)cc2)c(=O)c2cc(I)sc21 [Example 13, N-(4-Chlorobenzyl)-7-ethyl-2-iodo-4-oxo-4,7-dihydrothieno[2,3-b]pyridine-5-carboxamide] |  |  |  | 
24 | 5.8 µM | 215 to 218 °C | COCC#Cc1cc2c(O)c(C(=O)NCc3ccc(Cl)cc3)cnc2s1 [Example 6, N-(4-Chlorobenzyl)-4-hydroxy-2-(3-methoxy-1-propynyl)-thieno[2,3-b]pyridine-5-carboxamide] |  |  |  | 

Row | Structure (SMILES) | IC50 (HCMV polymerase) | melting point | IC50 (VZV polymerase; [1]) | IC50 (HSV polymerase) | IC50 (HSV polymerase; [2]) | IC50 (VZV polymerase)
25 | Cn1cc(C(=O)NCc2ccc(Cl)cc2)c(=O)c2cc(CN3CCOCC3)sc21 [Example 36, N-(4-Chlorobenzyl)-7-methyl-2-(4-morpholinylmethyl)-4-oxo-4,7-dihydrothieno[2,3-b]pyridine-5-carboxamide] | 1.8 µM |  | 0.77 µM | 1.2 µM |  | 
26 | Cn1cc(C(=O)NCc2ccc(Cl)cc2)c(=O)c2cc(CCCO)sc21 [Example 25, N-(4-Chlorobenzyl)-2-(3-hydroxypropyl)-7-methyl4-oxo-4,7-7dihydrothieno[2,3-b]pyridine-5-carboxamide] | 0.4 µM |  |  |  | 0.45 µM | 0.46 µM
